From patent US20240398699A1 (COSMO TECHNOLOGIES LTD., priority 2017, published 2024)
≈ marks a conversion by molar mass, not a printed value. Read-outs that look alike come from different tables or passages of the source. Each block holds one compound with its values, some of them ahead of it.

Experiments:
[1] = tested on: Methanobrevibacter smithii (DSMZ 11975); assay: MIC (Minimum Inhibiting Concentration) on bacterial strain; type: cell-based
[2] = tested on: IL1β-induced synthesis of IL-8 in colonic epithelial cells; assay: IL1β-induced IL-8 synthesis in colonic epithelial cells; type: cell-based
Source text: PMA or diacyl glycerol-activated PKC is important for T cell receptor or IgE-induced NFκB that occurs in immune cells, like T cells and mast cells, respectively. On the other hand, TNF or LPS-induced NFκB that occurs in colonic epithelial cells requires other signaling factors (TRAFs, TNFR-associated factors). Most importantly, for its relevance in IBS or IBD, NFκB biologic function was confirmed in colonic epithelial cells. […] These cell-dependent requirements for inducing inflammation imply that by acting on various target cells, rifamycin's anti-inflammatory potential is broad because dysregulated immune and epithelial cell interactions contribute to the pathogenesis of several GI disorders.

[3] = Safety and tolerability in healthy volunteers; type: in vivo, human
[4] = biological target: T1, human PXR (Homo sapiens, UniProt O75469); assay: PXR nuclear receptor luciferase reporter assay (Indigo Biosciences), agonist mode; type: cell-based; details: for EC50: 3 independent experiments, read-out: Agonism of PXR transcriptional activity expressed as EC50 Molar (95% CI range)
T1 construct: host or cells: proprietary human cells engineered to express the hybrid receptor
T1 sequence (O75469 146-433 limits assumed): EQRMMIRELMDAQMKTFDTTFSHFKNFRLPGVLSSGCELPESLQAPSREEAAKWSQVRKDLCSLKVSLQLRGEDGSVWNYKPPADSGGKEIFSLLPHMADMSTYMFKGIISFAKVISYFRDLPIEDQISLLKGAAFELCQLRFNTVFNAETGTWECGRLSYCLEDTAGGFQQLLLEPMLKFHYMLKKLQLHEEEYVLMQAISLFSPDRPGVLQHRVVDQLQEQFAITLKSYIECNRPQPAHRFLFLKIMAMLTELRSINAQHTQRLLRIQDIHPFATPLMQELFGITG
Source text: This assay product from Indigo Biosciences (Pennsylvania, USA) utilizes cells that express a hybrid form of human PXR. The N-terminal sequence encoding the PXR DNA binding domain (DBD) was substituted with that of the yeast GAL4-DBD. The native PXR ligand binding domain (LBD) and other C-terminal domains remain intact and functional. Ligand interaction activates the receptor, causing it to bind to the GAL4 DNA binding sequence, which is functionally linked to a resident luciferase reporter gene. Thus, quantifying changes in luciferase activity in the treated reporter cells provides a sensitive surrogate measure of the changes in PXR activity. The principle application of this reporter assay system is in the screening of test samples to quantify any functional activity, either agonist or antagonist, that they may exert against human PXR. […] The p value was calculated using Prism parametric, paired t test analysis.

[5] = tested on: NFkB transcription factor; assay: NFkB reporter assay (Indigo Biosciences), antagonist mode, TNFα stimulated human kidney epithelial cells; type: cell-based; details: for IC50: Homo sapiens, Epithelial cell, 30 ng/mL TNFα, 24 hours, 2 independent experiments, read-out: Antagonism of NFkB activity IC50 Molar (95% CI range)
Protocol: The NFkB nuclear receptor assay system from Indigo Biosciences utilizes human kidney epithelial cells transiently transfected with an NF-kB reporter. The NFkB biologic activity measured as transcriptional activity from these reporter cells demands the same orchestration of all intracellular molecular interactions and events that can be expected to occur in vivo. Cells were treated under antagonist mode in the presence of 30 ng/mL TNFα to stimulate the NFkB inflammatory cascade. […] After 24 hours, luminescence which is proportional to NFkB transcriptional activity was quantitated. […] The p value was calculated using Prism parametric, paired t test analysis.

[6] = tested on: NFκB transcriptional activity; assay: NFκB luciferase reporter cell line stimulated with PMA, TNFα or LPS; type: cell-based; details: for IC50: 24 hr incubation
Protocol: To establish that NFκB inhibition occurs upon rifamycin-induced PXR activation, a reporter cell line expressing full length NFκB and harboring luciferase reporter gene functionally linked to upstream NFκB genetic response elements, was stimulated with either PMA, TNFα or LPS to induce NFκB. Rifamycin or rifaximin were dose-titrated onto these stimulated cells. After 24 hr incubation, luminescence correlating to NFκB transcriptional activity was quantified.

[7] = PMA stimulus, read-out: IC50, antagonism of PMA-induced NFκB activity
[8] = up to the highest concentration tested

Compound: Cc1ncc([N+](=O)[O-])n1CCO [Metronidazole]
MIC ([1]; DSMZ11975, read-out: MIC): 25 µg/mL (≈ 146 µM)

Compound: NC[C@@H]1O[C@H](O[C@H]2[C@@H](O)[C@H](O[C@@H]3[C@@H](O)[C@H](N)C[C@H](N)[C@H]3O[C@H]3O[C@H](CN)[C@@H](O)[C@H](O)[C@H]3N)O[C@@H]2CO)[C@H](N)[C@@H](O)[C@@H]1O [Neomycin]
MIC [1]: >100 µg/mL

Compound: CO[C@H]1/C=C/O[C@@]2(C)Oc3c(C)c([O-])c4c(O)c(cc(O)c4c3C2=O)NC(=O)/C(C)=C\C=C\[C@H](C)[C@H](O)[C@@H](C)[C@@H](O)[C@@H](C)[C@H](OC(C)=O)[C@@H]1C.[Na+] [Rifamycin SV sodium]
MIC [1]: <1 µg/mL

Second part, led by results:

EC50 [4]: 6.08 nM | times more potent than rifaximin in stimulating PXR transcriptional activity ([4]; from rifaximin at 30 μM vs rifamycin SV at 0.3 μM): 250 times | times more potent than rifampicin (PXR) ([4]; vs rifampicin, positive control): 180 times | times more potent than rifaximin at stimulating PXR transcriptional activity ([4]; vs rifaximin): 200-440 times | IC50 [5]: 23 nM | IC50 ([6]; LPS stimulus, read-out: IC50, antagonism of LPS-induced NFκB activity): 3490 nM | IC50 [6, 7]: 15.6 nM | IC50 ([6]; TNFα stimulus, read-out: IC50, antagonism of TNFα-induced NFκB activity): 14800 nM
Compound: CO[C@H]1/C=C/O[C@@]2(C)Oc3c(C)c(O)c4c(O)c(cc(O)c4c3C2=O)NC(=O)/C(C)=C\C=C\[C@H](C)[C@H](O)[C@@H](C)[C@@H](O)[C@@H](C)[C@H](OC(C)=O)[C@@H]1C [Rifamycin SV, (2S,12Z,14E,16S,17S,18R,19R,20R,21S,22R,23S,24E)-21-(acetyloxy)-6,9,17,19-tetrahydroxy-23-methoxy-2,4,12,16,18,20,22-heptamethyl-1,11-dioxo-1,2-dihydro-2,7-(epoxypentadeca[1,11,13]trienimino)naphtho[2,1-b]furan-5-ol]
IL1β-induced synthesis of IL-8 [2]: significantly inhibited | change in vital signs, BW, ECGs or laboratory parameters ([3]; after treatment, 600 mg t.i.d., 14 days): No significant change | change in liver or kidney functions ([3]; during the multiple doses treatment): No significant change | discontinuation due to AEs ([3]; tablets of Example 1, 600 mg t.i.d., 14 days): no subject discontinued the study due to AEs | severe AEs ([3]; tablets of Example 1, 600 mg t.i.d., 14 days, 18 healthy subjects): No severe AEs were reported | times more potent than rifaximin at inhibiting NFkB transcriptional activity ([5]; vs rifaximin): 4000 times | times higher potency than rifaximin, PMA-induced NFκB activity ([6]; PMA stimulus): 6 times

MIC ([1]; DSMZ11975, read-out: MIC): 25 µg/mL (≈ 31.8 µM) | EC50 [4]: 1800 nM | times less potent than rifamycin SV at 0.3 μM (PXR) ([4]; rifaximin at 30 μM): 2.5 times | IC50 [5]: 83000 nM | IC50 [6, 7]: 93.9 nM
Compound: CO[C@H]1/C=C/O[C@@]2(C)Oc3c(C)c(O)c4c(O)c(c5c(nc6cc(C)ccn65)c4c3C2=O)NC(=O)/C(C)=C\C=C\[C@H](C)[C@H](O)[C@@H](C)[C@@H](O)[C@@H](C)[C@H](OC(C)=O)[C@@H]1C [Rifaximin]
inhibition of LPS-induced NFκB activity [6, 8]: did not inhibit | inhibition of TNFα-induced NFκB activity [6, 8]: did not inhibit
